In ChEMBL document CHEMBL3875216, “Synthesis of antimicrobial glucosamides as bacterial quorum sensing mechanism inhibitors” (Bioorg Med Chem, 2017):

What was measured:
Escherichia coli [1] = experiment: Growth inhibition of Escherichia coli MT102 at 500 uM after 24 hrs relative to control; settings: MT102, 24 h, read-out: GI
Escherichia coli [2] = experiment: Inhibition of LuxR-dependent quorum sensing activity in Escherichia coli MT102 harboring pJBA132 assessed as inhibition of OHHL-induced GFP expression at 2 mM measured after 24 hrs by fluorescence assay relative to control
Pseudomonas aeruginosa [3] = experiment: Growth inhibition of Pseudomonas aeruginosa MH602 at 500 uM after 8 hrs relative to control; settings: MH602, 8 h, read-out: GI
Escherichia coli [4] = experiment: Growth inhibition of Escherichia coli MT102 at 1 mM after 8 hrs relative to control; settings: MT102, 8 h, read-out: GI
Escherichia coli [5] = experiment: Growth inhibition of Escherichia coli MT102 at 1 mM after 24 hrs relative to control; settings: MT102, 24 h, read-out: GI
Pseudomonas aeruginosa [6] = experiment: Inhibition of LasR-dependent quorum sensing activity in Pseudomonas aeruginosa MH602 harboring GFP-fused […] LasB promoter assessed as inhibition of 3-oxo-dodecanoyl HSL-induced GFP expression at 1 mM measured after 8 hrs by fluorescence assay relative to control
Escherichia coli [7] = experiment: Growth inhibition of Escherichia coli MT102 at 500 uM after 8 hrs relative to control; settings: MT102, 8 h, read-out: GI
[8] = system: Pseudomonas aeruginosa PA14; experiment: Inhibition of quorum sensing-regulated pyocyanin production in Pseudomonas aeruginosa PA14 at 2 mM after 24 hrs relative to control
Pseudomonas aeruginosa [9] = experiment: Growth inhibition of Pseudomonas aeruginosa MH602 at 1 mM after 8 hrs relative to control; settings: MH602, 8 h, read-out: GI
Escherichia coli [10] = experiment: Inhibition of LuxR-dependent quorum sensing activity in Escherichia coli MT102 harboring pJBA132 assessed as inhibition of OHHL-induced GFP expression at 1 mM measured after 24 hrs by fluorescence assay relative to control
Escherichia coli [11] = experiment: Inhibition of LuxR-dependent quorum sensing activity in Escherichia coli MT102 harboring pJBA132 assessed as inhibition of OHHL-induced GFP expression at 1 mM measured after 8 hrs by fluorescence assay relative to control
Pseudomonas aeruginosa [12] = experiment: Growth inhibition of Pseudomonas aeruginosa MH602 at 2 mM after 8 hrs relative to control; settings: MH602, 8 h, read-out: GI
Pseudomonas aeruginosa [13] = experiment: Inhibition of LasR-dependent quorum sensing activity in Pseudomonas aeruginosa MH602 harboring GFP-fused […] LasB promoter assessed as inhibition of 3-oxo-dodecanoyl HSL-induced GFP expression at 2 mM measured after 8 hrs by fluorescence assay relative to control
Pseudomonas aeruginosa [14] = experiment: Growth inhibition of Pseudomonas aeruginosa MH602 at 500 uM after 24 hrs relative to control; settings: MH602, 24 h, read-out: GI
Pseudomonas aeruginosa [15] = experiment: Growth inhibition of Pseudomonas aeruginosa MH602 at 1 mM after 24 hrs relative to control; settings: MH602, 24 h, read-out: GI
Escherichia coli [16] = experiment: Growth inhibition of Escherichia coli MT102 at 2 mM after 24 hrs relative to control; settings: MT102, 24 h, read-out: GI
Pseudomonas aeruginosa [17] = experiment: Growth inhibition of Pseudomonas aeruginosa PA14 at 2 mM after 24 hrs relative to control; settings: 2000 µM
Pseudomonas aeruginosa [18] = experiment: Inhibition of LasR-dependent quorum sensing activity in Pseudomonas aeruginosa MH602 harboring GFP-fused […] LasB promoter assessed as inhibition of 3-oxo-dodecanoyl HSL-induced GFP expression at 500 uM measured after 8 hrs by fluorescence assay relative to control
Escherichia coli [19] = experiment: Growth inhibition of Escherichia coli MT102 at 2 mM after 8 hrs relative to control; settings: MT102, 8 h, read-out: GI
Pseudomonas aeruginosa [20] = experiment: Growth inhibition of Pseudomonas aeruginosa MH602 at 2 mM after 24 hrs relative to control; settings: MH602, 24 h, read-out: GI
Pseudomonas aeruginosa [21] = experiment: Inhibition of LasR-dependent quorum sensing activity in Pseudomonas aeruginosa MH602 harboring GFP-fused […] LasB promoter assessed as inhibition of 3-oxo-dodecanoyl HSL-induced GFP expression at 2 mM measured after 24 hrs by fluorescence assay relative to control
Escherichia coli [22] = experiment: Inhibition of LuxR-dependent quorum sensing activity in Escherichia coli MT102 harboring pJBA132 assessed as inhibition of OHHL-induced GFP expression at 2 mM measured after 8 hrs by fluorescence assay relative to control
Escherichia coli [23] = experiment: Inhibition of LuxR-dependent quorum sensing activity in Escherichia coli MT102 harboring pJBA132 assessed as inhibition of OHHL-induced GFP expression at 500 uM measured after 8 hrs by fluorescence assay relative to control
[24] = system: Pseudomonas aeruginosa PA14; experiment: Inhibition of quorum sensing-regulated biofilm formation in Pseudomonas aeruginosa PA14 at 2 mM after overnight incubation by crystal violet staining based assay relative to control

| SMILES | inhibition at 500 µM (Escherichia coli [1]) [%] | inhibition (Escherichia coli [2]) [%] | inhibition at 500 µM (Pseudomonas aeruginosa [3]) [%] | inhibition at 1000 µM (Escherichia coli [4]) [%] | inhibition at 1000 µM (Escherichia coli [5]) [%] | inhibition (Pseudomonas aeruginosa [6]) [%] | inhibition at 500 µM (Escherichia coli [7]) [%] | inhibition at 1000 µM (Pseudomonas aeruginosa [9]) [%] | inhibition (Escherichia coli [10]) [%] | inhibition (Escherichia coli [11]) [%] | inhibition at 2000 µM (Pseudomonas aeruginosa [12]) [%] | inhibition (Pseudomonas aeruginosa [13]) [%] | inhibition at 500 µM (Pseudomonas aeruginosa [14]) [%] | inhibition at 1000 µM (Pseudomonas aeruginosa [15]) [%] | inhibition at 2000 µM (Escherichia coli [16]) [%] | growth inhibition (GI) (Pseudomonas aeruginosa [17]) | inhibition (Pseudomonas aeruginosa [18]) [%] | inhibition at 2000 µM (Escherichia coli [19]) [%] | inhibition at 2000 µM (Pseudomonas aeruginosa [20]) [%] | inhibition (Escherichia coli [22]) [%] | other results |
| --- | --- | --- | --- | --- | --- | --- | --- | --- | --- | --- | --- | --- | --- | --- | --- | --- | --- | --- | --- | --- | --- |
| CCCCCCCCCC(=O)N[C@@H]1[C@@H](O)[C@H](O)[C@@H](CO)O[C@H]1O | 15.3 | 23.3 | 7.8 | 45 | 20 | 15.6 | 0 | 20.4 | 8.5 | 16.3 | 17.6 | 11.5 | 16.4 | 30.2 | 12.3 | Non-Toxic | 15.7 | 38.2 | 0 |  | inhibition [8]: 13.3% |
| CC(=O)OC[C@H]1O[C@@H](OC(C)=O)[C@H](NC(=O)CCc2c[nH]c3ccccc23)[C@@H](OC(C)=O)[C@@H]1OC(C)=O | 2.6 | 28.5 | 2.3 | 0 | 0 | 32.6 | 0 | 0 |  | 2.3 | 0 | 53.8 | 3.5 | 3.5 | 0 | Non-Toxic | 9.3 | 0 | 0 | 65.5 | inhibition (Pseudomonas aeruginosa [21]): 7.4%; inhibition (Escherichia coli [23]): 13.5% |
| CC(=O)OC[C@H]1O[C@@H](OC(C)=O)[C@H](NC(=O)CCCc2ccccc2)[C@@H](OC(C)=O)[C@@H]1OC(C)=O | 5.2 | 43.8 | 7.3 | 64.7 | 19.7 | 4.9 | 15.1 | 30.9 | 21.1 | 18.1 | 37.2 | 5.2 | 0 | 25.9 | 26.7 | Non-Toxic | 7.3 | 93.2 | 3.3 |  |  |
| CCCC(=O)CC(=O)N[C@H]1[C@H](OC(C)=O)O[C@H](COC(C)=O)[C@@H](OC(C)=O)[C@@H]1OC(C)=O | 12.7 | 40.9 | 5.7 | 44.1 | 49.2 | 59.6 | 22.2 | 66.8 | 20.7 | 85.4 | 74.9 | 64.5 | 6.3 | 25.9 | 65.1 | Non-Toxic | 5.3 | 50.3 | 4.6 | 88.1 | inhibition [24]: 38.1%; inhibition [8]: 3.5% |
| CCCCCC(=O)N[C@@H]1[C@@H](O)[C@H](O)[C@@H](CO)O[C@H]1O | 0 | 42.7 | 7.1 | 11.7 | 8.4 | 13.1 | 0 | 10.5 | 15.8 | 10.7 | 19 | 10 | 0 | 19.2 | 0 | Non-Toxic | 12.9 | 24.6 | 3.1 |  | inhibition [24]: 9% |
| CCCCCCCC(=O)N[C@H]1[C@H](OC(C)=O)O[C@H](COC(C)=O)[C@@H](OC(C)=O)[C@@H]1OC(C)=O | 6.2 | 14 | 2.7 | 0 | 9.6 | 8.5 | 23.7 | 2.5 |  | 2.3 | 33.1 |  | 0 | 0 | 21.4 | Non-Toxic | 14.4 | 14.9 | 2.8 | 36 | inhibition [24]: 21.1%; inhibition (Pseudomonas aeruginosa [21]): 26.1% |
| CCCCCCCCCCCC(=O)N[C@@H]1[C@@H](O)[C@H](O)[C@@H](CO)O[C@H]1O | 14.3 |  | 25.5 | 46.2 | 14.3 |  | 23.2 | 30.9 |  | 4.6 | 32 |  | 19.4 | 37.2 | 11.7 | Non-Toxic | 12.6 | 28.6 | 28.7 |  | inhibition [24]: 2.3%; inhibition [8]: 20.7% |
| CC(=O)OC[C@H]1O[C@@H](OC(C)=O)[C@H](NC(=O)CC(=O)CCCc2ccccc2)[C@@H](OC(C)=O)[C@@H]1OC(C)=O | 0 | 34.2 | 0 | 2.6 | 4.9 |  | 3.3 | 11.7 | 43.4 | 26 | 24.8 | 24.4 | 0 | 19.6 | 5.1 | Non-Toxic | 6.5 | 21.8 | 0 | 12.8 |  |
